Results as given in patent US20260240843A1, “PHARMACEUTICAL COMPOSITION AND USE THEREOF” (priority 2023, published 2026).
Counter-ions that a name gives are not always drawn. Like-named read-outs stand apart in the source and are kept apart here.

Columns and labels:
[1] = tested on: mouse ovarian cancer ID8 cells; assay: Murine ovarian cancer ID8 cell intraperitoneal model, combination with PLD; format: in vivo, mouse (C57BL/6)
Method: A total of 90 C57BL/6 mice were intraperitoneally injected with 15×10^6 ID8 cells to establish an ovarian cancer intraperitoneal model.
The body weight and tumor volume of the animals were measured twice or thrice a week during the experiment. The clinical symptoms were observed and recorded daily. After the administration was completed, the abdominal girth, body weight, and survival time of the mice were continuously observed until all the animals were subjected to euthanasia.
The tumor volume (TV) was measured using an IVIS imaging system, and the total luminescence value (Total flux) of each mouse was calculated under the same measurement area.
The animals were euthanized according to animal welfare principles when the body weight loss of the animals exceeded 20%, disease progression or moribund state was observed, the tumor burden exceeded 10% of the animal's body weight, the abdominal girth exceeded 100 mm, or the body weight exceeded 30 g.
Graphing was performed using Prism version 9 (GraphPad Software Inc., San Diego, CA), and the survival time and ascites production time were analyzed using the log-rank test.

[2] = tested on: human ovarian cancer OVCAR3 cell xenograft tumor; conditions: PLD 3 mg/kg i.v. qw x 3 w; for tumor growth inhibition (in words): (I-1) 100 mg/kg p.o. qd x 21 d
Text: A total of 56 immunodeficient mice were subcutaneously injected with 10×10^6 OVCAR3 cells to establish a xenograft tumor model. Tumor-bearing mice with uniform tumors were randomly grouped into different treatment groups based on tumor volume, with 6 mice in each group.
Tumor cells: OVCAR3; 10×10^6 cells+Matrigel gel/mouse. A total of 56 mice were inoculated. 24 tumor-bearing mice with relatively uniform tumors were selected and randomly divided into 4 experimental groups, with 6 mice in each group.
(§1) Under sterile conditions, a xenograft tumor model was established by subcutaneous injection of tumor cells into the right dorsal side of immunodeficient mice. When the tumor reached an appropriate size (100 mm^3 to 200 mm^3), the animals were randomly grouped by randomized block method based on the tumor volume of the animals, the tumor volume difference of each group should be less than 20% of the mean value, with 6 to 7 animals in each group, and administration was started on the day of grouping (i.e., d1). The body weight and tumor size of the animals were measured twice a week during the experiment. The clinical symptoms were observed and recorded daily. At the end of administration or at the end of the experiment.
(§2) The tumor volume (TV) was calculated as follows: TV=a×b^2/2, where a and b represent the measured length and width of the tumor, respectively.
(§3) The relative tumor volume (RTV) was calculated as follows: RTV=Vt/V1, where V1 represents the tumor volume at the time of grouping and administration (day 1), and Vt represents the tumor volume at the time of measurement.
(§4) The synergy score was calculated using the following formula (Clarke R, 1997):
(§5) [formula] • where A represents response to drug A; B represents response to drug B; C represents response to vehicle control; AB represents response to combination treatment with A and B.
(§6) The antitumor growth curves of the test substances were plotted by taking the X-axis as the treatment time (day) and the corresponding tumor volume (mean value) as the Y-axis. […] All data were statistically analyzed using SPSS (Statistical Product and Service Solutions) software (version 18.0, IBM, Armonk, NY, U.S.). Graphing was performed using Prism version 6 (GraphPad Software Inc., San Diego, CA).
(§7) For combination treatment, a synergy score of <1 indicated antagonistic effect, a synergy score of =1 indicated additive effect, and a synergy score of >1 indicated synergistic effect.

[3] = tested on: human ovarian cancer OVCAR3 cell xenograft tumor; conditions: doxorubicin hydrochloride 3 mg/kg i.v. qw x 4 w; for tumor growth inhibition (in words): (I-1) 100 mg/kg p.o. qd x 28 d; for RTV on day 29 after administration (mean value ± standard error) / T/C (%) on day 29 after administration: day 29, (I-1) 100 mg/kg p.o. qd x 28 d
Text: A total of 71 immunodeficient mice were subcutaneously injected with 10×10^6 OVCAR3 cells to establish a xenograft tumor model. Tumor-bearing mice with uniform tumors were randomly grouped into different treatment groups based on tumor volume, with 7 mice in each group.
Tumor cells: OVCAR3; 10×10^6 cells+Matrigel gel/mouse. A total of 71 mice were inoculated. 28 tumor-bearing mice with relatively uniform tumors were selected and randomly divided into 4 experimental groups, with 7 mice per group.
as §1, §2, §3, §4, §5, §6, §7

[4] = day 22, (I-1) 100 mg/kg p.o. qd x 21 d

With `Cc1cc(Nc2ncc(Cl)c(Nc3ccccc3S(=O)(=O)C(C)C)n2)c(OC(C)C)cc1C1=CCN(C2CCOCC2)CC1` [Compound represented by formula (I-1)] the “survival time of the mice (in words)” value ([1]; compared with the solvent control group (combination also vs. monotherapy groups)) was “prolonged”, the “T/C on day 22” value ([1]; day 22, (I-1) 100 mg/kg p.o. qd x 21 d, PLD 3 mg/kg i.v. qw x 3 w) was 37.49% and the “T/C (%) on day 36 after administration” value ([1]; day 36, (I-1) 100 mg/kg p.o. qd x 21 d, PLD 3 mg/kg i.v. qw x 3 w) was 97.13%. The “RTV on day 36 after administration (mean value ± standard error)” value ([1]; day 36, in vivo imaging (Total flux), (I-1) 100 mg/kg p.o. qd x 21 d, PLD 3 mg/kg i.v. qw x 3 w) was 4.72 ± 1.35, the “tumor growth inhibition (in words)” value [2] was “moderate tumor growth inhibition” and the “RTV on day 22 after administration (mean value ± standard error)” value [2, 4] was 7.42 ± 1.06. The “T/C (%) on day 22 after administration” value [2, 4] was 72.77%, the “tumor growth inhibition (in words)” value [3] was “moderate tumor growth inhibition” and the “RTV on day 29 after administration (mean value ± standard error)” value [3] was 7.95 ± 1.31. The “T/C (%) on day 29 after administration” value [3] was 63.15%.

For `COc1cccc2c1C(=O)c1c(O)c3c(c(O)c1C2=O)C[C@@](O)(C(=O)CO)C[C@@H]3O[C@H]1C[C@H](N)[C@H](O)[C@H](C)O1` [Doxorubicin hydrochloride, reference compound], the “tumor growth inhibition (in words)” value [2] was “moderate tumor growth inhibition”, the “tumor growth inhibition (in words)” value [3] was “moderate tumor growth inhibition” and the “RTV on day 29 after administration (mean value ± standard error)” value [3] was 8.88 ± 1.19. The “T/C (%) on day 29 after administration” value [3] was 70.50%.
